Article PMC7182439 (Cell, 2019)

Columns and labels:
SpCas9 [1] = biological target: T1, SpCas9 (Streptococcus pyogenes, UniProt Q99ZW2); assay: eGFP-disruption assay; type: cell-based
SpCas9 [2] = biological target: T1, SpCas9; assay: in vitro DNA cleavage assay; type: biochemical

T1 sequence (Q99ZW2 whole entry): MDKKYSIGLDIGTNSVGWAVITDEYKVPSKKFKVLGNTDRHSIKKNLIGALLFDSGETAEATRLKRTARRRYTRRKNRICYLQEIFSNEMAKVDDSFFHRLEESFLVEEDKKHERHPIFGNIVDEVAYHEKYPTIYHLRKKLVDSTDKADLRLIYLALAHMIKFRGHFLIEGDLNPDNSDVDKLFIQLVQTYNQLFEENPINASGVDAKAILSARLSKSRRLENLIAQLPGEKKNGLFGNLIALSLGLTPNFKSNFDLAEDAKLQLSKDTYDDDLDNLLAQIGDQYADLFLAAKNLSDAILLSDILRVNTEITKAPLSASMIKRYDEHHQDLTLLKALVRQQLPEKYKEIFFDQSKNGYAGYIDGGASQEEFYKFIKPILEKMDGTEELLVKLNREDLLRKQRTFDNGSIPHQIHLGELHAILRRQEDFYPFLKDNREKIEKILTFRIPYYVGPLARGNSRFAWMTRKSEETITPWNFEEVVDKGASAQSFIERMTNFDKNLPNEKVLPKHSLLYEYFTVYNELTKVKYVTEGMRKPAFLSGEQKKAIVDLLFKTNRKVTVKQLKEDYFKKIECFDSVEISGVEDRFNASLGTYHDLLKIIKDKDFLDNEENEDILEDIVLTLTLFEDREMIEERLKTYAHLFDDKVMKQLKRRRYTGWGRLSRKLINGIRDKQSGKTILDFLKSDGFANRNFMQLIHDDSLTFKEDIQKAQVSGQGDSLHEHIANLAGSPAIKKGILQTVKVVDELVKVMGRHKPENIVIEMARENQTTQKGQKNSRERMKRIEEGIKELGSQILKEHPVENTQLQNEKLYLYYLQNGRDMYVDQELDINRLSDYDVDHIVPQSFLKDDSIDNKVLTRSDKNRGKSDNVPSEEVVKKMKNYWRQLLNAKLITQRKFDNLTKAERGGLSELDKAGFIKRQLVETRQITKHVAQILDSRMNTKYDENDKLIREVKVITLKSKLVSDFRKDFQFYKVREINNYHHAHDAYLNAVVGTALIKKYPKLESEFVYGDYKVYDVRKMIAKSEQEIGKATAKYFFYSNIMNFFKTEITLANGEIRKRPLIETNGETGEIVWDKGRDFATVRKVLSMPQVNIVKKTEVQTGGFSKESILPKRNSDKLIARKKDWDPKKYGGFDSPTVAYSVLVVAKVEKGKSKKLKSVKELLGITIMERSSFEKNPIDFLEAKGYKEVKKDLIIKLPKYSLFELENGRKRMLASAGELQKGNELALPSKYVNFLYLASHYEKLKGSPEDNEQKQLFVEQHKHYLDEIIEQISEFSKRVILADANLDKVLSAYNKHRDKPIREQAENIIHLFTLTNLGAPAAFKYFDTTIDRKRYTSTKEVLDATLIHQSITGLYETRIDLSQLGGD

Row | Compound | EC50 (SpCas9 [1]) | IC50 (SpCas9 [2])
1 | COc1cccc(-c2ccc3c(c2)[C@H]2[C@H](CCN2C(=O)Cc2ccncc2)[C@H](CO)N3C)c1 [BRD3433] | 9.3 µM | 
2 | Cc1ccc(S(=O)(=O)N2CC[C@@H]3[C@H](CO)Nc4ccc(-c5ccccc5F)cc4[C@@H]32)cc1 [BRD0539] |  | 22 µM
